Test results from patent US9428508B2, “2,4-diamino-6,7-dihydro-5H-pyrrolo[2,3]pyrimidine derivatives as FAK/Pyk2 inhibitors” (Centaurus BioPharma Co., Ltd., priority 2011, dated 2016).

Legend:
FAK = FAK (Homo sapiens (Human), UniProt Q05397); experiment: Biochemical assay for FAK activity (LANCE TR-FRET, ULight-poly Glu,Ala,Tyr substrate); conditions: GST-tagged FAK, 120 min reaction
How it was run: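 GST-tagged FAK (2.5 nM working stock) with ULight-poly Glu,Ala,Tyr (666 nM stock) and ATP (33.3 μM stock) in Tris pH 7.5/MgCl2/DTT/CHAPS buffer with BSA, 120 min; EDTA-quenched. Phosphorylation read by TR-FRET with Eu-anti-phosphotyrosine (PY20) antibody after 60 min. Compounds tested as 12-point 3-fold dilutions.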

PYK2 = PYK2 (Homo sapiens (Human), UniProt Q14289); experiment: Biochemical assay for PYK2 activity (LANCE TR-FRET, ULight-poly Glu,Ala,Tyr substrate); conditions: GST-tagged PYK2, 40 min reaction
Chain of PYK2 (Q14289 whole entry): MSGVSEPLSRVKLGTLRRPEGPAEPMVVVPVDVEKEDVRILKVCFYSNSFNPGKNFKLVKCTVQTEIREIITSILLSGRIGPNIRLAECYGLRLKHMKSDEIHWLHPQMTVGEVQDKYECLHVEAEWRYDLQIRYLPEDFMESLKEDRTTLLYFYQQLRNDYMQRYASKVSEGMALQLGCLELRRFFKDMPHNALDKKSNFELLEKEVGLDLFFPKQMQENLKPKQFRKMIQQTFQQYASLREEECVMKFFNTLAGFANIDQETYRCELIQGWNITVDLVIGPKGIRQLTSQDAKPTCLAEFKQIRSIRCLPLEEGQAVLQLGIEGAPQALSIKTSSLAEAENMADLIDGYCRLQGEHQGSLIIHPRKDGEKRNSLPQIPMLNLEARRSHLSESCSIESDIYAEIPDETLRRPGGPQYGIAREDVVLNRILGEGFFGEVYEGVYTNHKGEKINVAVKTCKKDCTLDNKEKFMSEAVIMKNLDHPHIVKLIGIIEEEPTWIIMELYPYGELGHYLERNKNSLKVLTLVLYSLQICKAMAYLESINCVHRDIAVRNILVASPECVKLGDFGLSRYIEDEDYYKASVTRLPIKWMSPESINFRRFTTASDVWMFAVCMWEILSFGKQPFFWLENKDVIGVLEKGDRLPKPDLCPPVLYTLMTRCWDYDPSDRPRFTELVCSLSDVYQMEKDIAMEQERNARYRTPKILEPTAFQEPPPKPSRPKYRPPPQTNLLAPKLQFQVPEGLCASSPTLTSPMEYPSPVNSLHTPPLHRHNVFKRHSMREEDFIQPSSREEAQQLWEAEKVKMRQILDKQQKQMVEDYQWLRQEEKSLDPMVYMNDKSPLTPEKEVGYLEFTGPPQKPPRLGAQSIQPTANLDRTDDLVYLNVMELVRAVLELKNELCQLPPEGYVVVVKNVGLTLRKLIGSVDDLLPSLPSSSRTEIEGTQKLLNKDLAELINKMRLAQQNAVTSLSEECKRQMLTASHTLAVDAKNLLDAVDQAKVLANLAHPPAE
How it was run: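 GST-tagged human PYK2 (2 nM working stock) with ULight-poly Glu,Ala,Tyr (1:1:1) peptide (666 nM working stock) and ATP (46.6 μM working stock) in 40 mM Tris pH 7.5, MgCl2, 1 mM DTT, 1 mM CHAPS; 40 min reaction, EDTA quench. Phosphotyrosine read by LANCE Eu-anti-phosphotyrosine (PY20) TR-FRET after 60 min; 12-point 3-fold compound dilutions.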

Chain of FAK (Q05397 whole entry): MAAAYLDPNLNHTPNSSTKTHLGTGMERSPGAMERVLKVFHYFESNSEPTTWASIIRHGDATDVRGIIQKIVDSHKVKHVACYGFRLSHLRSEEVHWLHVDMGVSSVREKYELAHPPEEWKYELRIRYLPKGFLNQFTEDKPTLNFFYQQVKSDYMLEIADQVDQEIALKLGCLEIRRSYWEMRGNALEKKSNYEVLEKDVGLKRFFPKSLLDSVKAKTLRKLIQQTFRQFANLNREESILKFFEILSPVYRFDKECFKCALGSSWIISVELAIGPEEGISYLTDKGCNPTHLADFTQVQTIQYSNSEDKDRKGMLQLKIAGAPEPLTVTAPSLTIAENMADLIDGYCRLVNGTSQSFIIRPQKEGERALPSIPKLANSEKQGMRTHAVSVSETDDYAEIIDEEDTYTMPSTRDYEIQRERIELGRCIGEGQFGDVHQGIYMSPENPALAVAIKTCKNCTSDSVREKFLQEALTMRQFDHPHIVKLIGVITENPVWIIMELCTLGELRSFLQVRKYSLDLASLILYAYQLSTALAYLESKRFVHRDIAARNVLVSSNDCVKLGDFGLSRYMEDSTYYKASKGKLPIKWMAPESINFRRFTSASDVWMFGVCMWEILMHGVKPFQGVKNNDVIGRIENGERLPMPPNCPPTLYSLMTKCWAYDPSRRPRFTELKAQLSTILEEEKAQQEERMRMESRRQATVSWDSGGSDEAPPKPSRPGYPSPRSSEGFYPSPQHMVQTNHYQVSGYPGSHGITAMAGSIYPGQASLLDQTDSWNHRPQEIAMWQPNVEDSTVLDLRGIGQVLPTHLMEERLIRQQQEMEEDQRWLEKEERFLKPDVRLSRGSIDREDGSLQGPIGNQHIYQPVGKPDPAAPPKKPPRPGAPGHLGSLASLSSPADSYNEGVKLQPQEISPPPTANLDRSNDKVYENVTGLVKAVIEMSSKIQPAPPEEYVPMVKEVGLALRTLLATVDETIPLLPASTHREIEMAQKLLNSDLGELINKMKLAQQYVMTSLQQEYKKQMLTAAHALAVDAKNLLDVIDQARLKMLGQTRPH

| SMILES | IC50 (FAK) | IC50 (PYK2) |
| --- | --- | --- |
| COc1cc(N2CCOCC2)ccc1Nc1nc2c(c(Nc3ccccc3S(=O)(=O)C(C)C)n1)CCN2 [Example 100, N^4-(2-(isopropylsulfonyl)phenyl)-N^2-(2-methoxy-4-morpholinophenyl)-6,7-dihydro-5H-pyrrolo[2,3-d]pyrimidine-2,4-diamine] | < 20 nM | < 50 nM |
| COc1cc(N2CCOCC2)ccc1Nc1nc2c(c(Nc3ccccc3S(=O)(=O)NC3CCC3)n1)[C@H](C)CN2 [Example 36, (S)—N-cyclobutyl-2-(2-(2-methoxy-4-morpholinophenylamino)-5-methyl-6,7-dihydro-5H-pyrrolo[2,3-d]pyrimidin-4-ylamino)benzenesulfonamide] | < 20 nM | < 20 nM |
| CNC(=O)c1ccccc1Nc1nc(Nc2ccc(N3CCOCC3)cc2CO)nc2c1CCN2 [Example 14, 2-(2-(2-(hydroxymethyl)-4-morpholinophenylamino)-6,7-dihydro-5H-pyrrolo[2,3-d]pyrimidin-4-ylamino)-N-methylbenzamide] | > 1000 nM | > 1000 nM |
| COc1cc(N2CCOCC2)ccc1Nc1nc2c(c(Nc3ccccc3S(=O)(=O)NCCO)n1)C(C)(C)CN2 [Example 119, N-(2-hydroxyethyl)-2-(2-(2-methoxy-4-morpholinophenylamino)-5,5-dimethyl-6,7-dihydro-5H-pyrrolo[2,3-d]pyrimidin-4-ylamino)benzenesulfonamide] | < 500 nM | < 200 nM |
| COc1cc(N2CCOCC2)ccc1Nc1nc2c(c(Nc3ccccc3S(=O)(=O)Nc3ccccc3)n1)C(C)(C)CN2 [Example 116, 2-(2-(2-methoxy-4-morpholinophenylamino)-5,5-dimethyl-6,7-dihydro-5H-pyrrolo[2,3-d]pyrimidin-4-ylamino)-N-phenylbenzenesulfonamide] | < 200 nM | < 500 nM |
| COc1cc(N2CCOCC2)ccc1Nc1nc2c(c(Nc3ccccc3S(=O)(=O)NCC(C)C)n1)C(C)(C)CN2 [Example 107, N-isobutyl-2-(2-(2-methoxy-4-morpholinophenylamino)-5,5-dimethyl-6,7-dihydro-5H-pyrrolo[2,3-d]pyrimidin-4-ylamino)benzenesulfonamide] | < 20 nM | < 20 nM |
| COc1cc(N2CCC(N3CCNCC3)CC2)ccc1Nc1nc2c(c(Nc3ccccc3S(=O)(=O)NC(C)C)n1)CCN2 [Example 97, N-isopropyl-2-(2-(2-methoxy-4-(4-(piperazin-1-yl)piperidin-1-yl)phenylamino)-6,7-dihydro-5H-pyrrolo[2,3-d]pyrimidin-4-ylamino)benzenesulfonamide] | < 100 nM | < 500 nM |
| CNC(=O)c1ccccc1Nc1nc(Nc2cccc3ccoc23)nc2c1CCN2 [Example 19, 2-(2-(benzofuran-7-ylamino)-6,7-dihydro-5H-pyrrolo[2,3-d]pyrimidin-4-ylamino)-N-methylbenzamide] | < 200 nM | < 100 nM |
| COc1cc(N2CCOCC2)ccc1Nc1nc2c(c(Nc3ccccc3S(=O)(=O)NCC3CC3)n1)C1(CC1)CN2 [Example 140, N-(cyclopropylmethyl)-2-(2′-(2-methoxy-4-morpholinophenylamino)-6′,7′-dihydrospiro[cyclopropane-1,5′-pyrrolo[2,3-d]pyrimidine]-4′-ylamino)benzenesulfonamide] | < 20 nM | < 20 nM |
| CNC(=O)c1ccccc1Nc1nc(Nc2ccc(N3CCOCC3)cc2OC)nc2c1[C@@H](C)CN2 [Example 102, (R)-2-(2-(2-methoxy-4-morpholinophenylamino)-5-methyl-6,7-dihydro-5H-pyrrolo[2,3-d]pyrimidin-4-ylamino)-N-methylbenzamide] | < 20 nM | < 50 nM |
| COCCNS(=O)(=O)c1ccccc1Nc1nc(Nc2ccc(N3CCOCC3)cc2OC)nc2c1C1(CC1)CN2 [Example 141, 2-(2′-(2-methoxy-4-morpholinophenylamino)-6′,7′-dihydrospiro[cyclopropane-1,5′-pyrrolo[2,3-d]pyrimidine]-4′-ylamino)-N-(2-methoxyethyl)benzenesulfonamide] | < 20 nM | < 20 nM |
| COc1cc(N2CCOCC2)ccc1Nc1nc2c(c(Nc3ccccc3S(=O)(=O)NC3CCCC3)n1)C(C)(C)CN2 [Example 108, N-cyclopentyl-2-(2-(2-methoxy-4-morpholinophenylamino)-5,5-dimethyl-6,7-dihydro-5H-pyrrolo[2,3-d]pyrimidin-4-ylamino)benzenesulfonamide] | < 200 nM | < 500 nM |
| CNC(=O)c1ccccc1Nc1nc(Nc2cccc3c2OCCO3)nc2c1C(C)(C)CN2 [Example 128, 2-(2-(2,3-dihydrobenzo[b][1,4]dioxin-5-ylamino)-5,5-dimethyl-6,7-dihydro-5H-pyrrolo[2,3-d]pyrimidin-4-ylamino)-N-methylbenzamide] | < 20 nM | < 20 nM |
| CNC(=O)c1ccccc1Nc1nc(Nc2cc(OC)c(OC)c(OC)c2)nc2c1CCN2 [Example 21, N-methyl-2-(2-(3,4,5-trimethoxyphenylamino)-6,7-dihydro-5H-pyrrolo[2,3-d]pyrimidin-4-ylamino)benzamide] | < 1000 nM | < 300 nM |
| CC(C)NS(=O)(=O)c1ccccc1Nc1nc(Nc2ccc(OC(F)(F)F)cc2)nc2c1CCN2 [Example 71, N-isopropyl-2-(2-(4-(trifluoromethoxy)phenylamino)-6,7-dihydro-5H-pyrrolo[2,3-d]pyrimidin-4-ylamino)benzenesulfonamide] | < 200 nM | < 100 nM |
| COc1cc(NCCN2CCOCC2)ccc1Nc1nc2c(c(Nc3ccccc3S(=O)(=O)NC(C)C)n1)CCN2 [Example 85, N-isopropyl-2-(2-(2-methoxy-4-(2-morpholinoethylamino)phenylamino)-6,7-dihydro-5H-pyrrolo[2,3-d]pyrimidin-4-ylamino)benzenesulfonamide] | < 20 nM | < 20 nM |
| CNC(=O)c1ccccc1Nc1nc(Nc2cc(C)nn2C)nc2c1CCN2 [Example 20, 2-(2-(1,3-dimethyl-1H-pyrazol-5-ylamino)-6,7-dihydro-5H-pyrrolo[2,3-d]pyrimidin-4-ylamino)-N-methylbenzamide] | < 1000 nM | < 500 nM |
| COc1cc(N2CCOCC2)ccc1Nc1nc2c(c(Nc3ccccc3N(C)S(C)(=O)=O)n1)C(C)CN2 (racemic) [Example 31, (±)-N-(2-(2-(2-methoxy-4-morpholinophenylamino)-5-methyl-6,7-dihydro-5H-pyrrolo[2,3-d]pyrimidin-4-ylamino)phenyl)-N-methylmethanesulfonamide] | < 30 nM | < 20 nM |
| COc1cc(N2CCOCC2)ccc1Nc1nc2c(c(Nc3ccccc3S(=O)(=O)NCC3CC3)n1)C(C)(C)CN2 [Example 118, N-(cyclopropylmethyl)-2-(2-(2-methoxy-4-morpholinophenylamino)-5,5-dimethyl-6,7-dihydro-5H-pyrrolo[2,3-d]pyrimidin-4-ylamino)benzenesulfonamide] | < 50 nM | < 50 nM |
| COc1cc(N2CCOCC2)ccc1Nc1nc2c(c(Nc3ccccc3S(=O)(=O)NC3CC3)n1)CCN2 [Example 42, N-cyclopropyl-2-(2-(2-methoxy-4-morpholinophenylamino)-6,7-dihydro-5H-pyrrolo[2,3-d]pyrimidin-4-ylamino)benzenesulfonamide] | < 20 nM | < 50 nM |
| COc1cc(N2CCOCC2)ccc1Nc1nc2c(c(Nc3ccccc3S(N)(=O)=O)n1)CCN2 [Example 41, 2-(2-(2-methoxy-4-morpholinophenylamino)-6,7-dihydro-5H-pyrrolo[2,3-d]pyrimidin-4-ylamino)benzenesulfonamide] | < 50 nM | < 200 nM |
| CNC(=O)c1ccccc1Nc1nc(Nc2ccc(N3CCOCC3)cc2)nc2c1CCN2 [Example 158, N-methyl-2-(2-(4-morpholinophenylamino)-6,7-dihydro-5H-pyrrolo[2,3-d]pyrimidin-4-ylamino)benzamide] | < 100 nM | < 100 nM |
| CC(C)NS(=O)(=O)c1ccccc1Nc1nc(Nc2ccc(CO)cc2)nc2c1CCN2 [Example 54, 2-(2-(4-(hydroxymethyl)phenylamino)-6,7-dihydro-5H-pyrrolo[2,3-d]pyrimidin-4-ylamino)-N-isopropylbenzenesulfonamide] | < 20 nM | < 20 nM |
| COc1cc(N2CCOCC2)ccc1Nc1nc2c(c(Nc3ccccc3S(=O)(=O)N(C)C)n1)C1(CC1)CN2 [Example 151, 2-(2′-(2-methoxy-4-morpholinophenylamino)-6′,7′-dihydrospiro[cyclopropane-1,5′-pyrrolo[2,3-d]pyrimidine]-4′-ylamino)-N,N-dimethylbenzenesulfonamide] | < 20 nM | < 20 nM |
| COc1cc(N2CCC(N3CCN(C)CC3)CC2)ccc1Nc1nc2c(c(Nc3ccccc3S(=O)(=O)NC(C)C)n1)CCN2 [Example 96, N-isopropyl-2-(2-(2-methoxy-4-(4-(4-methylpiperazin-1-yl)piperidin-1-yl)phenylamino)-6,7-dihydro-5H-pyrrolo[2,3-d]pyrimidin-4-ylamino)benzenesulfonamide] | < 20 nM | < 20 nM |
| COc1cc(N2C(C)COCC2C)ccc1Nc1nc2c(c(Nc3ccccc3S(=O)(=O)NC(C)C)n1)CCN2 (stereo not shown) [Example 84, 2-(2-(4-(3,5-dimethylmorpholino)-2-methoxyphenylamino)-6,7-dihydro-5H-pyrrolo[2,3-d]pyrimidin-4-ylamino)-N-isopropylbenzenesulfonamide] | < 50 nM | < 100 nM |
